Where “and” joins values, the source holds several entries; their conditions need not be identical. Equal values may be shown once.
Columns and labels:
Caco-2 cells = experiment: Caco-2 permeability; format: in vitro ADME; settings: 10 μM
Procedure: (§1) Caco-2 Permeability: Caco-2 cells (ATCC®, Manassas, Virginia, United States of America) were grown on 24-well (pore size: 0.4 μm) polycarbonate filters. The monolayers were pre-incubated with pre-warmed HBSS (Hank's balanced salt solution) containing 2.5% HEPES buffer (pH 7.4) for 0.5 h at 37° C. After pre-incubation, the buffer was removed, and the experimental compounds were added to reach a final concentration of 10 μM. 2% bovine serum albumin (BSA) was added to the receiver buffer for the study. The total volume was 400 μL for the apical (A) side and 1200 μL for the basolateral (B) side. For apical to basolateral transport study (A-B), 100 μL each was collected from both sides for sample analysis at the start of the assay and then 200 μL was collected from the […] at 90 minutes (end of the study). The same timepoints and amounts were used for the basolateral to apical transport study (B-A).
(§2) The apparent permeability coefficient (Papp) was calculated from the following equation.
(§3) • v=Volume of the receiver cell • A=Exposed surface area (0.64 cm^2) • C=Initial donor concentration • ∂C/∂t=Change in receiver concentration over time

E. coli PQ37 = experiment: Mutagenicity evaluation (SOS-chromotest); format: cell-based, Escherichia coli; settings: 10 mg/mL
Procedure: Mutagenicity evaluation: Escherichia coli PQ37 strain was grown overnight at 37° C., with shaking, in Luria Broth Base supplemented with 50 μg/mL Ampicillin. Bacteria were grown to mid-logarithmic phase and adjusted to an optical density of 0.4.
The second day, Luria Broth Base supplemented with 1.5% Agar was autoclaved for 15 minutes at 121° C. and then put into a water bath at 55° C. for 1 hour.
80 mL of warm agar was transferred into a plastic bottle (Milian, PETG 2019-0125) supplemented with […] ampicillin and 0.005% X-Gal (dissolved into DMF). 4 mL of E. coli PQ37 was added to the mixture and 70 mL of it was transferred into a square petri dish (Grenier Bio-One, Kremsmunster, Austria, 120×120 mm). Petri dish containing the mixture was dried 15 minutes at RT and once the mixture became solid, 6 mm absorbent disks were stuck on the plate.
5 μL of each compound were added on the disk with a pipet sold under the tradename PIPETMAN® P20 (Gilson S.A.S., Villiers-Le-Bel, France) and the petri dish was incubated overnight at 37° C.
The third day, zones of inhibition were recorded with a ruler and a picture of the plate was taken with a scanner (Canon 8800F, Cannon U.S.A., Inc., Melville, New York, United States of America).
Zone of inhibition was calculated by eye using a ruler and presence/absence of blue halo was reporter.

THP-1 = experiment: 99% toxic dose (TD99) in THP-1; format: cell-based
Caco-2 permeability = format: in vitro ADME; settings: human, Caco-2, pH 7.4
Procedure: as §1, §2, §3

SMILES: Nc1nc(Nc2ccc(Cl)cc2)nn1S(=O)(=O)c1ccc2ccccc2c1 [Compound 1, N3-(4-chlorophenyl)-1-(2-naphthylsulfonyl)-1,2,4-triazole-3,5-diamine]
- Caco-2 Papp A-B (Caco-2 cells; 90 minutes): 1.38 nm/s
- Caco-2 Papp B-A (Caco-2 cells; 90 minutes): 1.22 nm/s
- Caco-2 Efflux ratio (Caco-2 cells; human, Caco-2, 90 min, pH 7.4): (×10−6 cm/s) Efflux ratio = 0.883
- Genotoxicity in the SOS-chromotest (E. coli PQ37): did not appear to be genotoxic
- 99% toxic dose (TD99) (THP-1): > 11 μg/ml and > 27.5 μM

SMILES: N#C/C=C/c1ccc2c(S(=O)(=O)n3nc(Nc4ccc(C#N)c(Cl)c4)nc3N)cccc2c1 [Compound 20, 4-[[5-amino-1-[[6-[2-cyanovinyl]-1-naphthyl]sulfonyl]-1,2,4-triazol-3-yl]amino]-2-chloro-benzonitrile]
- efflux ratio at 90 min, 10 μM (Caco-2 permeability): 1
- Papp A→B at 90 min, 10 μM (Caco-2 permeability; 10 μM, 90 minutes): 4 nm/s
- Papp B→A at 90 min, 10 μM (Caco-2 permeability; 10 μM, 90 minutes): 4 nm/s

Reference: patent US20250179033A1 (priority 2021, published 2025)
